{
  "source": "patent US4470977A",
  "about": "“Antiemetic and antipsychotic agents” (Adria Laboratories, Inc., priority 1982, dated 1984)",
  "key": {"dopaminergic receptors": {"tested_on": "dopaminergic receptors", "assay": "Antagonism to Apomorphine Induced Climbing Behavior", "assay_type": "in vivo, mouse", "conditions": "for Antagonism (20 min. After): 20 minutes after 1 mg/kg s.c. apomorphine, doses 6.25 to 100 mg/kg; for Antagonism (20 min. After) / ED50: mouse; for ED50: antagonism to apomorphine (1 mg/kg s.c.) induced climbing behavior, p.o.; for apomorphine induced climbing behavior (in words): indicator of antipsychotic activity", "excerpt": "The effect of each of the compounds in Table 1 on apomorphine induced climbing behavior related to stimulation of dopaminergic receptors was studied under the experimental conditions described by Costetin et al, 1975, Rapid and Dissociated Changes in Sensitivities of Different Dopamine Receptors in Mouse Brain, Nature, 257, 405."}, "mammary gland": {"tested_on": "mammary gland", "assay": "Effect of Sulpiride and Sulpiride Analogs on Mammary Gland Development in Female Sprague Dawley Rats", "assay_type": "in vivo", "conditions": "for Number of Animals with Mammary Hypertrophy: n = 6 female Sprague Dawley rats, 0.02% drug in chow, 14 days", "excerpt": "The animals were individually caged during the 14-day study, with rat chow and tap water permitted ad libitum. The rat chow fed to the control group contained no drug, while that fed to the other groups contained 0.02% drug. Food cups were weighed and refilled on day 7 during the study. On day 14 of the study, the animals were sacrificed by asphyxiation in a CO2 atmosphere and then were weighed. The abdominal skin was cut along the midline from the pelvis to the sternum and separated from underlying tissues by blunt dissection. Each animal was then examined grossly for mammary gland enlargement."}, "[1]": {"tested_on": "medullary chemoreceptor trigger zone (CTZ)", "assay": "Antiemetic Screen: Antagonism to Apomorphine Induced Emesis In the Dog", "assay_type": "in vivo, beagle dogs", "set-up": "key to Antagonism to Apomorphine Induced Emesis: If both animals receiving a particular treatment are protected (i.e., no emetic response within one hour after apomorphine), the test compound is defined as active (+)", "conditions": "for Antagonism to Apomorphine Induced Emesis: 10 mg/kg sc, beagle dogs, 0.1 mg/kg sc apomorphine HCl one hour later", "experimental": "Each compound is administered subcutaneously (sc) to two beagle dogs at 10.0 mg/kg. One hour following administration of the test compound, each animal receives 0.1 mg/kg, sc, of apomorphine HCl. Apomorphine consistently evokes an immediate emetic response through direct dopaminergic interaction at the medullary chemoreceptor trigger zone (CTZ). Antiemetic compounds which act at the CTZ and/or the midbrain vomiting center will block this effect of apomorphine. If both animals receiving a particular treatment are protected (i.e., no emetic response within one hour after apomorphine), the test compound is defined as active (+). In instances where protection is observed in only 1 of the 2 animals, the experiment is repeated in two additional animals and the results of the two tests are combined. Compounds which protect 3 out of 4 animals are then defined as active. The results are shown in Table 4 below and indicate that each of the invention compounds is active against emesis."}, "dopamine receptors": {"tested_on": "dopamine receptors", "conditions": "cited from earlier work"}},
  "data": [
    {"smiles": "CCN1CCCC1CNC(=O)c1cccc(Cl)c1OC", "note": "(stereo not drawn) [Compound 1, 3-chloro-N-(1-ethyl-2-pyrrolidinylmethyl)-2-methoxybenzamide]", "values": [
      {"measurement": "Antagonism (20 min. After)", "setting": "dopaminergic receptors", "result": "Yes"},
      {"measurement": "ED50", "setting": "dopaminergic receptors", "result": "26.8 (20.7-38.5) mg/kg p.o."},
      {"measurement": "apomorphine induced climbing behavior (in words)", "setting": "dopaminergic receptors", "result": "suppress apomorphine induced climbing behavior"},
      {"measurement": "mammary hypertrophy (in words)", "setting": "mammary gland", "result": "without mammary hypertrophy"},
      {"measurement": "Number of Animals with Mammary Hypertrophy", "setting": "mammary gland", "result": 0, "unit": "animals"},
      {"measurement": "antiemetic effect (in words)", "setting": "[1]", "result": "possess an antiemetic effect"},
      {"measurement": "Antagonism to Apomorphine Induced Emesis", "setting": "[1]", "result": "+"}
    ]},
    {"smiles": "CCN1CCCC1CNC(=O)c1ccc(Cl)cc1OC", "note": "(stereo not drawn) [Compound 2, 4-chloro-N-(1-ethyl-2-pyrrolidinylmethyl)-2-methoxybenzamide]", "values": [
      {"measurement": "Antagonism (20 min. After)", "setting": "dopaminergic receptors", "result": "Yes"},
      {"measurement": "apomorphine induced climbing behavior (in words)", "setting": "dopaminergic receptors", "result": "suppress apomorphine induced climbing behavior"},
      {"measurement": "mammary hypertrophy (in words)", "setting": "mammary gland", "result": "without mammary hypertrophy"},
      {"measurement": "Number of Animals with Mammary Hypertrophy", "setting": "mammary gland", "result": 0, "unit": "animals"},
      {"measurement": "antiemetic effect (in words)", "setting": "[1]", "result": "possess an antiemetic effect"},
      {"measurement": "Antagonism to Apomorphine Induced Emesis", "setting": "[1]", "result": "+"}
    ]},
    {"smiles": "CCN1CCCC1CNC(=O)c1cc(Cl)ccc1OC", "note": "(stereo not drawn) [Compound 3, 5-chloro-N-(1-ethyl-2-pyrrolidinylmethyl)-2-methoxybenzamide]", "values": [
      {"measurement": "Antagonism (20 min. After)", "setting": "dopaminergic receptors", "result": "Yes"},
      {"measurement": "apomorphine induced climbing behavior (in words)", "setting": "dopaminergic receptors", "result": "suppress apomorphine induced climbing behavior"},
      {"measurement": "mammary hypertrophy (in words)", "setting": "mammary gland", "result": "without mammary hypertrophy"},
      {"measurement": "Number of Animals with Mammary Hypertrophy", "setting": "mammary gland", "result": 0, "unit": "animals"},
      {"measurement": "antiemetic effect (in words)", "setting": "[1]", "result": "possess an antiemetic effect"},
      {"measurement": "Antagonism to Apomorphine Induced Emesis", "setting": "[1]", "result": "+"}
    ]},
    {"smiles": "CCN1CCCC1CNC(=O)c1ccccc1OC", "note": "(stereo not drawn) [Compound 4, N-(1-ethyl-2-pyrrolidinylmethy)-2-methoxybenzamide]", "values": [
      {"measurement": "Antagonism (20 min. After)", "setting": "dopaminergic receptors", "result": "Yes"},
      {"measurement": "apomorphine induced climbing behavior (in words)", "setting": "dopaminergic receptors", "result": "suppress apomorphine induced climbing behavior"},
      {"measurement": "mammary hypertrophy (in words)", "setting": "mammary gland", "result": "without mammary hypertrophy"},
      {"measurement": "Number of Animals with Mammary Hypertrophy", "setting": "mammary gland", "result": 0, "unit": "animals"},
      {"measurement": "antiemetic effect (in words)", "setting": "[1]", "result": "possess an antiemetic effect"},
      {"measurement": "Antagonism to Apomorphine Induced Emesis", "setting": "[1]", "result": "+"}
    ]},
    {"smiles": "CCN1CCCC1CNC(=O)c1ccc(C)cc1OC", "note": "(stereo not drawn) [Compound 5, N-(1-ethyl-2-pyrrolidinylmethyl)-2-methoxy-4-methylbenzamide]", "values": [
      {"measurement": "Antagonism (20 min. After)", "setting": "dopaminergic receptors", "result": "Yes"},
      {"measurement": "Number of Animals with Mammary Hypertrophy", "setting": "mammary gland", "result": 0, "unit": "animals"},
      {"measurement": "Antagonism to Apomorphine Induced Emesis", "setting": "[1]", "result": "+"}
    ]},
    {"smiles": "CCN1CCCC1CNC(=O)c1cc(C)ccc1OC", "note": "(stereo not drawn) [Compound 6, N-(1-ethyl-2-pyrrolidinylmethyl)-2-methoxy-5-methylbenzamide]", "values": [
      {"measurement": "Antagonism (20 min. After)", "setting": "dopaminergic receptors", "result": "Yes"},
      {"measurement": "Number of Animals with Mammary Hypertrophy", "setting": "mammary gland", "result": 0, "unit": "animals"},
      {"measurement": "Antagonism to Apomorphine Induced Emesis", "setting": "[1]", "result": "+"}
    ]},
    {"smiles": "CCN1CCCC1CNC(=O)c1cccc([N+](=O)[O-])c1OC", "note": "(stereo not drawn) [Compound 7, N-(1-ethyl-2-pyrrolidinylmethyl)-2-methoxy-3-nitrobenzamide]", "values": [
      {"measurement": "Antagonism (20 min. After)", "setting": "dopaminergic receptors", "result": "Yes"},
      {"measurement": "Number of Animals with Mammary Hypertrophy", "setting": "mammary gland", "result": 0, "unit": "animals"},
      {"measurement": "Antagonism to Apomorphine Induced Emesis", "setting": "[1]", "result": "+"}
    ]},
    {"smiles": "CCN1CCCC1CNC(=O)c1cccc(C)c1[N+](=O)[O-]", "note": "(stereo not drawn) [Compound 8, N-(1-ethyl-2-pyrrolidinylmethyl)-3-methyl-2-nitrobenzamide]", "values": [
      {"measurement": "Antagonism (20 min. After)", "setting": "dopaminergic receptors", "result": "No"},
      {"measurement": "Number of Animals with Mammary Hypertrophy", "setting": "mammary gland", "result": 0, "unit": "animals"},
      {"measurement": "Antagonism to Apomorphine Induced Emesis", "setting": "[1]", "result": "+"}
    ]},
    {"smiles": "CCN1CCCC1CNC(=O)c1ccccc1N", "note": "(stereo not drawn) [Compound 9, 2-amino-N-(1-ethyl-2-pyrrolidinylmethyl)-benzamide]", "values": [
      {"measurement": "Antagonism (20 min. After)", "setting": "dopaminergic receptors", "result": "Yes"},
      {"measurement": "apomorphine induced climbing behavior (in words)", "setting": "dopaminergic receptors", "result": "suppress apomorphine induced climbing behavior"},
      {"measurement": "mammary hypertrophy (in words)", "setting": "mammary gland", "result": "without mammary hypertrophy"},
      {"measurement": "Number of Animals with Mammary Hypertrophy", "setting": "mammary gland", "result": 0, "unit": "animals"},
      {"measurement": "antiemetic effect (in words)", "setting": "[1]", "result": "possess an antiemetic effect"},
      {"measurement": "Antagonism to Apomorphine Induced Emesis", "setting": "[1]", "result": "+"}
    ]},
    {"smiles": "CCN1CCCC1CNC(=O)c1cccc(C)c1N", "note": "(stereo not drawn) [Compound 10, 2-amino-N-(1-ethyl-2-pyrrolidinylmethyl)-3-methylbenzamide]", "values": [
      {"measurement": "Antagonism (20 min. After)", "setting": "dopaminergic receptors", "result": "No"},
      {"measurement": "Number of Animals with Mammary Hypertrophy", "setting": "mammary gland", "result": 0, "unit": "animals"},
      {"measurement": "Antagonism to Apomorphine Induced Emesis", "setting": "[1]", "result": "+"}
    ]},
    {"smiles": "CCN1CCCC1CNC(=O)c1cccc(N)c1C", "note": "(stereo not drawn) [Compound 11, 3-amino-N-(1-ethyl-2-pyrrolidinylmethyl)-2-methylbenzamide]", "values": [
      {"measurement": "Antagonism (20 min. After)", "setting": "dopaminergic receptors", "result": "No"},
      {"measurement": "Number of Animals with Mammary Hypertrophy", "setting": "mammary gland", "result": 0, "unit": "animals"},
      {"measurement": "Antagonism to Apomorphine Induced Emesis", "setting": "[1]", "result": "+"}
    ]},
    {"smiles": "CCN1CCCC1CNC(=O)c1cc(Cl)ccc1Cl", "note": "(stereo not drawn) [Compound 12, 2,5-dichloro-N-(1-ethyl-2-pyrrolidinylmethyl)-benzamide]", "values": [
      {"measurement": "Antagonism (20 min. After)", "setting": "dopaminergic receptors", "result": "Yes"},
      {"measurement": "apomorphine induced climbing behavior (in words)", "setting": "dopaminergic receptors", "result": "suppress apomorphine induced climbing behavior"},
      {"measurement": "mammary hypertrophy (in words)", "setting": "mammary gland", "result": "without mammary hypertrophy"},
      {"measurement": "Number of Animals with Mammary Hypertrophy", "setting": "mammary gland", "result": 0, "unit": "animals"},
      {"measurement": "antiemetic effect (in words)", "setting": "[1]", "result": "possess an antiemetic effect"},
      {"measurement": "Antagonism to Apomorphine Induced Emesis", "setting": "[1]", "result": "+"}
    ]},
    {"smiles": "CCN1CCCC1CNC(=O)c1cccc(Cl)c1C", "note": "(stereo not drawn) [Compound 13, 3-chloro-N-(1-ethyl-2-pyrrolidinylmethyl)-2-methylbenzamide]", "values": [
      {"measurement": "Antagonism (20 min. After)", "setting": "dopaminergic receptors", "result": "No"},
      {"measurement": "Number of Animals with Mammary Hypertrophy", "setting": "mammary gland", "result": 0, "unit": "animals"},
      {"measurement": "Antagonism to Apomorphine Induced Emesis", "setting": "[1]", "result": "+"}
    ]},
    {"smiles": "CCN1CCCC1CNC(=O)c1cc(S(N)(=O)=O)ccc1OC", "note": "(stereo not drawn) [Sulpiride, 2-methoxy-N-(1-ethyl-2-pyrrolidinylmethyl)-5-sulfamoyl benzamide, reference compound]", "values": [
      {"measurement": "Antagonism (20 min. After)", "setting": "dopaminergic receptors", "result": "Yes"},
      {"measurement": "ED50", "setting": "dopaminergic receptors", "result": "24.3 (19.3-32.4) mg/kg p.o."},
      {"measurement": "mammary hypertrophy (in words)", "setting": "mammary gland", "result": "consistently produce mammary hypertrophy"},
      {"measurement": "Number of Animals with Mammary Hypertrophy", "setting": "mammary gland", "result": 6, "unit": "animals"},
      {"measurement": "undesirable side effect", "setting": "dopamine receptors", "result": "mammary hypertrophy"}
    ]}
  ]
}
